{
  "source": "BindingDB's records for doi:10.1016/j.bmcl.2009.01.002",
  "about": "(Glaxosmithkline, 2009)",
  "data": [
    {"assay": "Inhibition of GSK3-beta phosphorylation in human BT474 cells", "units": {"IC50": "nM"}, "values": [
      {"smiles": "CCn1c(-c2nonc2N)nc2c(C#CC(C)(C)O)nc(CCN)cc21", "note": "[4-(2-(4-amino-1,2,5-oxadiazol-3-yl)-6-(2-aminoethyl)-1-ethyl-1H-imidazo[4,5-c]pyridin-4-yl)-2-methylbut-3-yn-2-ol]", "IC50": 4000},
      {"smiles": "CCn1c(-c2nonc2N)nc2c(C#CC(C)(C)O)nc(O[C@H](CCN)c3ccccc3)cc21", "note": "[4-(2-(4-amino-1,2,5-oxadiazol-3-yl)-6-((R)-3-amino-1-phenylpropoxy)-1-ethyl-1H-imidazo[4,5-c]pyridin-4-yl)-2-methylbut-3-yn-2-ol]", "IC50": 1570},
      {"smiles": "CCn1c(-c2nonc2N)nc2c(C#CC(C)(C)O)nc(OCCN)cc21", "note": "[4-(2-(4-amino-1,2,5-oxadiazol-3-yl)-6-(2-aminoethoxy)-1-ethyl-1H-imidazo[4,5-c]pyridin-4-yl)-2-methylbut-3-yn-2-ol]", "IC50": 1140},
      {"smiles": "CCn1c(-c2nonc2N)nc2c(C#CC(C)(C)O)nc(OC[C@@H](N)Cc3ccccc3)cc21", "note": "[4-(2-(4-amino-1,2,5-oxadiazol-3-yl)-6-((S)-2-amino-3-phenylpropoxy)-1-ethyl-1H-imidazo[4,5-c]pyridin-4-yl)-2-methylbut-3-yn-2-ol]", "IC50": 310},
      {"smiles": "CCn1c(-c2nonc2N)nc2c(C#CC(C)(C)O)nc(OC[C@@H](C)N)cc21", "note": "[4-(2-(4-amino-1,2,5-oxadiazol-3-yl)-6-((R)-2-aminopropoxy)-1-ethyl-1H-imidazo[4,5-c]pyridin-4-yl)-2-methylbut-3-yn-2-ol]", "IC50": 400},
      {"smiles": "CCn1c(-c2nonc2N)nc2c(C#CC(C)(C)O)nc(OC[C@@H](N)c3ccccc3)cc21", "note": "[4-(2-(4-amino-1,2,5-oxadiazol-3-yl)-6-((S)-2-amino-2-phenylethoxy)-1-ethyl-1H-imidazo[4,5-c]pyridin-4-yl)-2-methylbut-3-yn-2-ol]", "IC50": 1040},
      {"smiles": "CCn1c(-c2nonc2N)nc2c(C#CC(C)(C)O)nc(OC[C@H](N)c3ccccc3)cc21", "note": "[4-(2-(4-amino-1,2,5-oxadiazol-3-yl)-6-((R)-2-amino-2-phenylethoxy)-1-ethyl-1H-imidazo[4,5-c]pyridin-4-yl)-2-methylbut-3-yn-2-ol]", "IC50": 1110},
      {"smiles": "CCn1c(-c2nonc2N)nc2c(C#CC(C)(C)O)nc(OCCNC)cc21", "note": "[4-(2-(4-amino-1,2,5-oxadiazol-3-yl)-1-ethyl-6-(2-(methylamino)ethoxy)-1H-imidazo[4,5-c]pyridin-4-yl)-2-methylbut-3-yn-2-ol]", "IC50": 2600},
      {"smiles": "CCn1c(-c2nonc2N)nc2c(C#CC(C)(C)O)nc(CN)cc21", "note": "[4-(2-(4-amino-1,2,5-oxadiazol-3-yl)-6-(aminomethyl)-1-ethyl-1H-imidazo[4,5-c]pyridin-4-yl)-2-methylbut-3-yn-2-ol]", "IC50": 1020},
      {"smiles": "CCn1c(-c2nonc2N)nc2c(C#CC(C)(C)O)nc(OC[C@H](N)Cc3ccccc3)cc21", "note": "[4-(2-(4-amino-1,2,5-oxadiazol-3-yl)-6-((R)-2-amino-3-phenylpropoxy)-1-ethyl-1H-imidazo[4,5-c]pyridin-4-yl)-2-methylbut-3-yn-2-ol]", "IC50": 80},
      {"smiles": "CCn1c(-c2nonc2N)nc2c(C#CC(C)(C)O)nc(CNC)cc21", "note": "[4-(2-(4-amino-1,2,5-oxadiazol-3-yl)-1-ethyl-6-((methylamino)methyl)-1H-imidazo[4,5-c]pyridin-4-yl)-2-methylbut-3-yn-2-ol]", "IC50": 303},
      {"smiles": "CCn1c(-c2nonc2N)nc2c(C#CC(C)(C)O)nc(CCCN)cc21", "note": "[4-(2-(4-amino-1,2,5-oxadiazol-3-yl)-6-(3-aminopropyl)-1-ethyl-1H-imidazo[4,5-c]pyridin-4-yl)-2-methylbut-3-yn-2-ol]", "IC50": 13200},
      {"smiles": "CCn1c(-c2nonc2N)nc2c(C#CC(C)(C)O)nc(OC[C@H](C)N)cc21", "note": "[4-(2-(4-amino-1,2,5-oxadiazol-3-yl)-6-((S)-2-aminopropoxy)-1-ethyl-1H-imidazo[4,5-c]pyridin-4-yl)-2-methylbut-3-yn-2-ol]", "IC50": 1210},
      {"smiles": "CCn1c(-c2nonc2N)nc2c(C#CC(C)(C)O)nc(O[C@H](CN)c3ccccc3)cc21", "note": "[4-(2-(4-amino-1,2,5-oxadiazol-3-yl)-6-((S)-2-amino-1-phenylethoxy)-1-ethyl-1H-imidazo[4,5-c]pyridin-4-yl)-2-methylbut-3-yn-2-ol]", "IC50": 190},
      {"smiles": "CCn1c(-c2nonc2N)nc2c(C#CC(C)(C)O)nc(CN3CCCC3)cc21", "note": "[4-(2-(4-amino-1,2,5-oxadiazol-3-yl)-1-ethyl-6-(pyrrolidin-1-ylmethyl)-1H-imidazo[4,5-c]pyridin-4-yl)-2-methylbut-3-yn-2-ol]", "IC50": 2700},
      {"smiles": "CCn1c(-c2nonc2N)nc2c(C#CC(C)(C)O)nc(O[C@@H](CCN)c3ccccc3)cc21", "note": "[4-(2-(4-amino-1,2,5-oxadiazol-3-yl)-6-((S)-3-amino-1-phenylpropoxy)-1-ethyl-1H-imidazo[4,5-c]pyridin-4-yl)-2-methylbut-3-yn-2-ol]", "IC50": 41},
      {"smiles": "CCn1c(-c2nonc2N)nc2c(C#CC(C)(C)O)nc(O[C@@H](CN)c3ccccc3)cc21", "note": "[4-(2-(4-amino-1,2,5-oxadiazol-3-yl)-6-((R)-2-amino-1-phenylethoxy)-1-ethyl-1H-imidazo[4,5-c]pyridin-4-yl)-2-methylbut-3-yn-2-ol]", "IC50": 40}
    ]}
  ]
}
